Article PMC11822212, “High-throughput screening identifies Aurora kinase B as a critical therapeutic target for Merkel cell carcinoma” (Nature Communications, 2025)
Values joined by “and” are separate entries in the source; they are usually repeats but may differ in a detail not shown here. Identical values can stand only once. Like-named read-outs stand apart in the source and are kept apart here.

Assays:
Experiment in all cases: qHTS cell viability (CellTiter-Glo, 72 h; primary and follow-up small molecule screen)
Type in all cases: cell-based, human
MCC13 cells (VN-MCC) = system: MCC13 cells (VN-MCC)
MCC26 cells (VN-MCC) = system: MCC26 cells (VN-MCC)
UISO cells (VN-MCC) = system: UISO cells (VN-MCC)
WAGA cells (VP-MCC) = system: WAGA cells (VP-MCC)
MKL-1 cells (VP-MCC) = system: MKL-1 cells (VP-MCC)
MKL-2 cells (VP-MCC) = system: MKL-2 cells (VP-MCC)
[1] = follow-up screen, MCC13, replicate 1
[2] = follow-up screen, MCC13, replicate 2
[3] = follow-up screen, MCC13, replicate 3
[4] = follow-up screen, MCC26, replicate 1
[5] = follow-up screen, MCC26, replicate 2
[6] = follow-up screen, MCC26, replicate 3
[7] = follow-up screen, UISO, replicate 1
[8] = follow-up screen, UISO, replicate 2
[9] = follow-up screen, UISO, replicate 3
[10] = follow-up screen, WAGA, replicate 1
[11] = follow-up screen, WAGA, replicate 2
[12] = follow-up screen, WAGA, replicate 3
[13] = follow-up screen, MKL-1, replicate 1
[14] = follow-up screen, MKL-1, replicate 2
[15] = follow-up screen, MKL-1, replicate 3
[16] = follow-up screen, MKL-2, replicate 1
[17] = follow-up screen, MKL-2, replicate 2
[18] = follow-up screen, MKL-2, replicate 3

Compound | Area under the dose-response curve (AUC) MCC13 Replicate 1 (MCC13 cells (VN-MCC)) | Area under the dose-response curve (AUC) MCC13 Replicate 2 (MCC13 cells (VN-MCC)) | Area under the dose-response curve (AUC) MCC13 Replicate 3 (MCC13 cells (VN-MCC)) | Area under the dose-response curve (AUC) MCC26 Replicate 1 (MCC26 cells (VN-MCC)) | Area under the dose-response curve (AUC) MCC26 Replicate 2 (MCC26 cells (VN-MCC)) | Area under the dose-response curve (AUC) MCC26 Replicate 3 (MCC26 cells (VN-MCC)) | Area under the dose-response curve (AUC) UISO Replicate 1 (UISO cells (VN-MCC)) | Area under the dose-response curve (AUC) UISO Replicate 2 (UISO cells (VN-MCC)) | Area under the dose-response curve (AUC) UISO Replicate 3 (UISO cells (VN-MCC)) | Area under the dose-response curve (AUC) WAGA Replicate 1 (WAGA cells (VP-MCC)) | Area under the dose-response curve (AUC) WAGA Replicate 2 (WAGA cells (VP-MCC)) | Area under the dose-response curve (AUC) WAGA Replicate 3 (WAGA cells (VP-MCC)) | Area under the dose-response curve (AUC) MKL-1 Replicate 1 (MKL-1 cells (VP-MCC)) | Area under the dose-response curve (AUC) MKL-1 Replicate 2 (MKL-1 cells (VP-MCC)) | Area under the dose-response curve (AUC) MKL-1 Replicate 3 (MKL-1 cells (VP-MCC)) | Area under the dose-response curve (AUC) MKL-2 Replicate 1 (MKL-2 cells (VP-MCC)) | Area under the dose-response curve (AUC) MKL-2 Replicate 2 (MKL-2 cells (VP-MCC)) | Area under the dose-response curve (AUC) MKL-2 Replicate 3 (MKL-2 cells (VP-MCC)) | Area under the dose-response curve (AUC) MCC13 Replicate 1 (MCC13 cells (VN-MCC); [1]) | Area under the dose-response curve (AUC) MCC13 Replicate 2 (MCC13 cells (VN-MCC); [2]) | further results
O.O=c1c2ccc(O)c(O)c2oc2c(O)c(O)ccc12 [3,4,5,6-Tetrahydroxyxanthone hydrate] | – | – | – | – | – | – | – | – | – | – | – | – | – | – | – | – | – | – | – | – | Area under the dose-response curve (AUC) (MCC13 cells (VN-MCC)): 500.0 and 470.6 and 462.5; Area under the dose-response curve (AUC) (MCC26 cells (VN-MCC)): 448.2 and 449.4 and 459.1; Area under the dose-response curve (AUC) (UISO cells (VN-MCC)): 455.2 and 451.1 and 430.7; Area under the dose-response curve (AUC) (WAGA cells (VP-MCC)): 510.8 and 453.0 and 432.4; Area under the dose-response curve (AUC) (MKL-1 cells (VP-MCC)): 474.6 and 473.6 and 453.4; Area under the dose-response curve (AUC) (MKL-2 cells (VP-MCC)): 454.0 and 468.2 and 444.8
CC[C@@]1(O)C(=O)OCc2c1cc1n(c2=O)Cc2cc3cc(O)ccc3nc2-1 [10-hydroxycamptothecin] | 287.3 | 291.9 | 277.2 | 260.5 | 244.0 | 250.0 | 187.9 | 199.3 | 183.4 | 195.8 | 197.2 | 184.4 | 214.0 | 217.0 | 223.0 | 184.7 | 164.5 | 246.0 | – | – | –
Nc1ncnc2c1ncn2[C@@H]1O[C@H](CO)[C@@H](O)[C@H]1O [Adenosine] | – | – | – | – | – | – | – | – | – | – | – | – | – | – | – | – | – | – | 550.6 | 498.0 | Area under the dose-response curve (AUC) MCC13 Replicate 3 (MCC13 cells (VN-MCC); [3]): 487.2; Area under the dose-response curve (AUC) MCC26 Replicate 1 (MCC26 cells (VN-MCC); [4]): 484.4; Area under the dose-response curve (AUC) MCC26 Replicate 2 (MCC26 cells (VN-MCC); [5]): 450.7; Area under the dose-response curve (AUC) MCC26 Replicate 3 (MCC26 cells (VN-MCC); [6]): 501.0; Area under the dose-response curve (AUC) UISO Replicate 1 (UISO cells (VN-MCC); [7]): 514.9; Area under the dose-response curve (AUC) UISO Replicate 2 (UISO cells (VN-MCC); [8]): 502.8; Area under the dose-response curve (AUC) UISO Replicate 3 (UISO cells (VN-MCC); [9]): 486.4; Area under the dose-response curve (AUC) WAGA Replicate 1 (WAGA cells (VP-MCC); [10]): 557.9; Area under the dose-response curve (AUC) WAGA Replicate 2 (WAGA cells (VP-MCC); [11]): 476.1; Area under the dose-response curve (AUC) WAGA Replicate 3 (WAGA cells (VP-MCC); [12]): 490.2; Area under the dose-response curve (AUC) MKL-1 Replicate 1 (MKL-1 cells (VP-MCC); [13]): 523.5; Area under the dose-response curve (AUC) MKL-1 Replicate 2 (MKL-1 cells (VP-MCC); [14]): 521.0; Area under the dose-response curve (AUC) MKL-1 Replicate 3 (MKL-1 cells (VP-MCC); [15]): 519.8; Area under the dose-response curve (AUC) MKL-2 Replicate 1 (MKL-2 cells (VP-MCC); [16]): 483.1; Area under the dose-response curve (AUC) MKL-2 Replicate 2 (MKL-2 cells (VP-MCC); [17]): 500.4; Area under the dose-response curve (AUC) MKL-2 Replicate 3 (MKL-2 cells (VP-MCC); [18]): 489.0
CCC(=O)CCCCC[C@@H]1NC(=O)[C@H]2CCCCN2C(=O)[C@H]([C@@H](C)CC)NC(=O)[C@H](Cc2cn(OC)c3ccccc23)NC1=O [Apicidin] | 352.8 | 341.2 | 320.0 | 312.3 | 327.5 | 296.4 | 287.8 | 286.2 | 272.4 | 264.4 | 253.3 | 235.6 | 315.8 | 299.2 | 285.0 | 250.3 | 267.1 | 303.9 | – | – | –
COc1ccc(C(=O)CC(=O)c2ccc(C(C)(C)C)cc2)cc1 [Avobenzone] | – | – | – | – | – | – | – | – | – | – | – | – | – | – | – | – | – | – | 464.5 | 464.7 | Area under the dose-response curve (AUC) MCC13 Replicate 3 (MCC13 cells (VN-MCC); [3]): 487.0; Area under the dose-response curve (AUC) MCC26 Replicate 1 (MCC26 cells (VN-MCC); [4]): 418.2; Area under the dose-response curve (AUC) MCC26 Replicate 2 (MCC26 cells (VN-MCC); [5]): 424.5; Area under the dose-response curve (AUC) MCC26 Replicate 3 (MCC26 cells (VN-MCC); [6]): 411.6; Area under the dose-response curve (AUC) UISO Replicate 1 (UISO cells (VN-MCC); [7]): 448.1; Area under the dose-response curve (AUC) UISO Replicate 2 (UISO cells (VN-MCC); [8]): 466.1; Area under the dose-response curve (AUC) UISO Replicate 3 (UISO cells (VN-MCC); [9]): 426.5; Area under the dose-response curve (AUC) WAGA Replicate 1 (WAGA cells (VP-MCC); [10]): 495.5; Area under the dose-response curve (AUC) WAGA Replicate 2 (WAGA cells (VP-MCC); [11]): 492.2; Area under the dose-response curve (AUC) WAGA Replicate 3 (WAGA cells (VP-MCC); [12]): 489.4; Area under the dose-response curve (AUC) MKL-1 Replicate 1 (MKL-1 cells (VP-MCC); [13]): 452.4; Area under the dose-response curve (AUC) MKL-1 Replicate 2 (MKL-1 cells (VP-MCC); [14]): 457.3; Area under the dose-response curve (AUC) MKL-1 Replicate 3 (MKL-1 cells (VP-MCC); [15]): 467.2; Area under the dose-response curve (AUC) MKL-2 Replicate 1 (MKL-2 cells (VP-MCC); [16]): 491.6; Area under the dose-response curve (AUC) MKL-2 Replicate 2 (MKL-2 cells (VP-MCC); [17]): 475.6; Area under the dose-response curve (AUC) MKL-2 Replicate 3 (MKL-2 cells (VP-MCC); [18]): 463.7
O=C(O)CC(C(=O)O)n1c(O)c(C2=c3cc(Br)ccc3=NC2=O)sc1=S (stereo not drawn) [BCL6 Inhibitor] | – | – | – | – | – | – | – | – | – | – | – | – | – | – | – | – | – | – | – | – | Area under the dose-response curve (AUC) (MCC13 cells (VN-MCC)): 512.5 and 484.7 and 473.4; Area under the dose-response curve (AUC) (MCC26 cells (VN-MCC)): 463.9 and 441.3 and 491.7; Area under the dose-response curve (AUC) (UISO cells (VN-MCC)): 463.7 and 453.9 and 421.4; Area under the dose-response curve (AUC) (WAGA cells (VP-MCC)): 531.4 and 497.2 and 476.9; Area under the dose-response curve (AUC) (MKL-1 cells (VP-MCC)): 525.6 and 554.1 and 496.0; Area under the dose-response curve (AUC) (MKL-2 cells (VP-MCC)): 493.8 and 494.8 and 466.7
O=C1Nc2cc(Br)ccc2/C1=C1/Nc2ccccc2/C1=N\O [BIO] | 481.8 | 449.1 | 449.8 | 419.0 | 405.4 | 424.1 | 266.6 | 275.6 | 251.6 | 533.5 | 491.3 | 474.9 | 450.0 | 447.7 | 422.6 | 490.0 | 435.9 | 463.9 | – | – | –
CO/C1=C\C(C)=C\[C@@H](C)[C@@H](O)[C@@H](C)C/C(C)=C/C=C/[C@H](OC)[C@@H]([C@@H](C)[C@@H](O)[C@H](C)[C@@]2(O)C[C@@H](O)[C@H](C)[C@@H](C(C)C)O2)OC1=O [Bafilomycin A1] | – | – | – | – | – | – | – | – | – | – | – | – | – | – | – | – | – | – | 343.3 | 351.4 | Area under the dose-response curve (AUC) MCC13 Replicate 3 (MCC13 cells (VN-MCC); [3]): 328.2; Area under the dose-response curve (AUC) MCC26 Replicate 1 (MCC26 cells (VN-MCC); [4]): 325.4; Area under the dose-response curve (AUC) MCC26 Replicate 2 (MCC26 cells (VN-MCC); [5]): 330.5; Area under the dose-response curve (AUC) MCC26 Replicate 3 (MCC26 cells (VN-MCC); [6]): 331.3; Area under the dose-response curve (AUC) UISO Replicate 1 (UISO cells (VN-MCC); [7]): 306.5; Area under the dose-response curve (AUC) UISO Replicate 2 (UISO cells (VN-MCC); [8]): 264.4; Area under the dose-response curve (AUC) UISO Replicate 3 (UISO cells (VN-MCC); [9]): 311.8; Area under the dose-response curve (AUC) WAGA Replicate 1 (WAGA cells (VP-MCC); [10]): 341.4; Area under the dose-response curve (AUC) WAGA Replicate 2 (WAGA cells (VP-MCC); [11]): 394.8; Area under the dose-response curve (AUC) WAGA Replicate 3 (WAGA cells (VP-MCC); [12]): 342.5; Area under the dose-response curve (AUC) MKL-1 Replicate 1 (MKL-1 cells (VP-MCC); [13]): 341.8; Area under the dose-response curve (AUC) MKL-1 Replicate 2 (MKL-1 cells (VP-MCC); [14]): 384.5; Area under the dose-response curve (AUC) MKL-1 Replicate 3 (MKL-1 cells (VP-MCC); [15]): 316.5; Area under the dose-response curve (AUC) MKL-2 Replicate 1 (MKL-2 cells (VP-MCC); [16]): 338.8; Area under the dose-response curve (AUC) MKL-2 Replicate 2 (MKL-2 cells (VP-MCC); [17]): 333.5; Area under the dose-response curve (AUC) MKL-2 Replicate 3 (MKL-2 cells (VP-MCC); [18]): 368.3
